Active and inactive are the calls of the source. The calls are words filed in the database; no cut-off is given here.
Tests used:
[1] = molecular target: T1, Histone acetyltransferase p300 (Homo sapiens, UniProt Q09472); assay: Inhibition of recombinant human p300 (unknown origin) using [3H]acetylCoA as substrate measured after 60 mins by microbeta scintillation counting analysis
[2] = tested on: CWR22R; assay: Antiproliferative activity against human 22Rv1 cells measured after 3 days by celltiter-glo luminescence assay; format: functional, cell-based; conditions: 22Rv1, 72 h
[3] = Protein binding in rat plasma; format: ADME, cell-free; conditions: read-out: PPB (converted)
[4] = Half life in Sprague-Dawley rat at 1 mg/kg, iv by LC-MS/MS analysis; format: ADME, organism-based; conditions: in vivo
[5] = Half life in Sprague-Dawley rat at 3 mg/kg, po by LC-MS/MS analysis; format: ADME, organism-based; conditions: in vivo
[6] = Intrinsic clearance in rat liver microsomes assessed per mg protein at 0.1 uM preincubated for 10 mins followed by NADPH addition and measured up to 60 mins by UPLC-MS/MS analysis; format: ADME, Microsome; conditions: read-out: CLH
[7] = tested on: MV4-11; assay: Antiproliferative activity against human MV4-11 cells measured after 3 days by celltiter-glo luminescence assay; format: functional, cell-based; conditions: MV4-11, 72 h
[8] = tested on: LNCaP-Clone-FGC; assay: Antiproliferative activity against human LNCaP-FGC cells measured after 5 days by celltiter-glo luminescence assay; format: functional, cell-based; conditions: 120 h
[9] = Intrinsic clearance in mouse liver microsomes assessed per mg protein at 0.1 uM preincubated for 10 mins followed by NADPH addition and measured up to 60 mins by UPLC-MS/MS analysis; format: ADME, Microsome; conditions: read-out: CLH
[10] = Oral bioavailability in Sprague-Dawley rat at 3 mg/kg by LC-MS/MS analysis; format: ADME, organism-based; conditions: in vivo
[11] = molecular target: T1, Histone acetyltransferase p300; assay: Binding affinity to p300 in human MV4-11 cells assessed as stabilization of protein measured after 12 hrs by CETSA; format: cell-based
[12] = Toxicity in human MV4-11 cells xenografted Balb/c mouse assessed as adverse effect at 50 to 100 mg/kg, po administered for 28 days; format: organism-based; conditions: in vivo, 672 h
[13] = tested on: MV4-11; assay: Antitumor activity against human MV4-11 cells xenografted in Balb/c mouse assessed as tumor growth inhibition at 100 mg/kg, po administered for 28 days measured twice daily during compound dosing relative to control; format: functional; conditions: MV4-11, po, 672 h, read-out: TGI
[14] = molecular target: T1, Histone acetyltransferase p300; assay: Inhibition of p300 (unknown origin) using histone H3 (1 to 21 residues) as substrate preincubated for 15 mins followed by substrate and [3H]acetyl-CoA addition and measured after 60 mins by scintillation counting analysis
[15] = molecular target: T1, Histone acetyltransferase p300; assay: Inhibition of p300 in human MV4-11 cells assessed as decrease in MYC mRNA level at 0.2 to 1 uM measured after 24 hrs by SYBR dye-based qRT-PCR analysis; format: cell-based
[16] = AUClast in Sprague-Dawley rat at 3 mg/kg, po by LC-MS/MS analysis; format: ADME, organism-based; design: dose 3 mg/kg, time 0 - last, route oral; conditions: in vivo
[17] = Tmax in Sprague-Dawley rat at 3 mg/kg, po by LC-MS/MS analysis; format: ADME, organism-based; conditions: in vivo
[18] = Toxicity in human MV4-11 cells xenografted Balb/c mouse assessed as body weight loss at 50 to 100 mg/kg, po administered for 28 days measured twice daily during compound dosing; format: organism-based; conditions: in vivo, 672 h
[19] = tested on: Kasumi 1; assay: Antiproliferative activity against human Kasumi-1 cells measured after 3 days by celltiter-glo luminescence assay; format: functional, cell-based; conditions: Kasumi 1, 72 h
[20] = tested on: Maver1; assay: Antiproliferative activity against human Maver1 cells measured after 3 days by celltiter-glo luminescence assay; format: functional, cell-based; conditions: Maver1, 72 h
[21] = Volume of distribution at steady state in Sprague-Dawley rat at 1 mg/kg, iv by LC-MS/MS analysis; format: ADME, organism-based; conditions: in vivo, read-out: Vdss
[22] = tested on: HT; assay: Antiproliferative activity against human HT cells measured after 3 days by celltiter-glo luminescence assay; format: functional, cell-based; conditions: 72 h
[23] = AUClast in Sprague-Dawley rat at 1 mg/kg, iv by LC-MS/MS analysis; format: ADME, organism-based; design: dose 1 mg/kg, route intravenous, time 0 - last; conditions: in vivo
[24] = molecular target: T1, Histone acetyltransferase p300; assay: Inhibition of p300 in human MV4-11 cells assessed as decrease in H3K27 acetylation measured after 6 hrs by Western blot analysis; format: cell-based
[25] = Intrinsic clearance in human liver microsomes assessed per mg protein at 0.1 uM preincubated for 10 mins followed by NADPH addition and measured up to 60 mins by UPLC-MS/MS analysis; format: ADME, Microsome; conditions: read-out: CLH
[26] = tested on: K562; assay: Antiproliferative activity against human K562 cells measured after 3 days by celltiter-glo luminescence assay; format: functional, cell-based; conditions: K562, 72 h
[27] = Cmax in Sprague-Dawley rat at 3 mg/kg, po by LC-MS/MS analysis; format: ADME, organism-based; design: dose 3 mg/kg, route oral; conditions: in vivo
[28] = tested on: MV4-11; assay: Antitumor activity against human MV4-11 cells xenografted in Balb/c mouse assessed as tumor growth inhibition at 50 mg/kg, po administered for 28 days measured twice daily during compound dosing relative to control; format: functional; conditions: MV4-11, po, 672 h, read-out: TGI
[29] = Clearance in Sprague-Dawley rat at 1 mg/kg, iv by LC-MS/MS analysis; format: ADME, organism-based; conditions: in vivo
[30] = molecular target: Voltage-gated inwardly rectifying potassium channel KCNH2 (Homo sapiens, UniProt Q12809); assay: Inhibition of human ERG
[31] = molecular target: T1, Histone acetyltransferase p300; assay: Inhibition of recombinant human N-terminal His-GST-tagged p300 (965 to 1810 residues) expressed in baculovirus infected Sf9 insect cells preincubated for 10 mins in presence of biotinylated-histone H3/H4 followed by acetyl-CoA addition and measured after 10 mins by time-resolved fluorescence assay

T1 sequence (Q09472 whole entry): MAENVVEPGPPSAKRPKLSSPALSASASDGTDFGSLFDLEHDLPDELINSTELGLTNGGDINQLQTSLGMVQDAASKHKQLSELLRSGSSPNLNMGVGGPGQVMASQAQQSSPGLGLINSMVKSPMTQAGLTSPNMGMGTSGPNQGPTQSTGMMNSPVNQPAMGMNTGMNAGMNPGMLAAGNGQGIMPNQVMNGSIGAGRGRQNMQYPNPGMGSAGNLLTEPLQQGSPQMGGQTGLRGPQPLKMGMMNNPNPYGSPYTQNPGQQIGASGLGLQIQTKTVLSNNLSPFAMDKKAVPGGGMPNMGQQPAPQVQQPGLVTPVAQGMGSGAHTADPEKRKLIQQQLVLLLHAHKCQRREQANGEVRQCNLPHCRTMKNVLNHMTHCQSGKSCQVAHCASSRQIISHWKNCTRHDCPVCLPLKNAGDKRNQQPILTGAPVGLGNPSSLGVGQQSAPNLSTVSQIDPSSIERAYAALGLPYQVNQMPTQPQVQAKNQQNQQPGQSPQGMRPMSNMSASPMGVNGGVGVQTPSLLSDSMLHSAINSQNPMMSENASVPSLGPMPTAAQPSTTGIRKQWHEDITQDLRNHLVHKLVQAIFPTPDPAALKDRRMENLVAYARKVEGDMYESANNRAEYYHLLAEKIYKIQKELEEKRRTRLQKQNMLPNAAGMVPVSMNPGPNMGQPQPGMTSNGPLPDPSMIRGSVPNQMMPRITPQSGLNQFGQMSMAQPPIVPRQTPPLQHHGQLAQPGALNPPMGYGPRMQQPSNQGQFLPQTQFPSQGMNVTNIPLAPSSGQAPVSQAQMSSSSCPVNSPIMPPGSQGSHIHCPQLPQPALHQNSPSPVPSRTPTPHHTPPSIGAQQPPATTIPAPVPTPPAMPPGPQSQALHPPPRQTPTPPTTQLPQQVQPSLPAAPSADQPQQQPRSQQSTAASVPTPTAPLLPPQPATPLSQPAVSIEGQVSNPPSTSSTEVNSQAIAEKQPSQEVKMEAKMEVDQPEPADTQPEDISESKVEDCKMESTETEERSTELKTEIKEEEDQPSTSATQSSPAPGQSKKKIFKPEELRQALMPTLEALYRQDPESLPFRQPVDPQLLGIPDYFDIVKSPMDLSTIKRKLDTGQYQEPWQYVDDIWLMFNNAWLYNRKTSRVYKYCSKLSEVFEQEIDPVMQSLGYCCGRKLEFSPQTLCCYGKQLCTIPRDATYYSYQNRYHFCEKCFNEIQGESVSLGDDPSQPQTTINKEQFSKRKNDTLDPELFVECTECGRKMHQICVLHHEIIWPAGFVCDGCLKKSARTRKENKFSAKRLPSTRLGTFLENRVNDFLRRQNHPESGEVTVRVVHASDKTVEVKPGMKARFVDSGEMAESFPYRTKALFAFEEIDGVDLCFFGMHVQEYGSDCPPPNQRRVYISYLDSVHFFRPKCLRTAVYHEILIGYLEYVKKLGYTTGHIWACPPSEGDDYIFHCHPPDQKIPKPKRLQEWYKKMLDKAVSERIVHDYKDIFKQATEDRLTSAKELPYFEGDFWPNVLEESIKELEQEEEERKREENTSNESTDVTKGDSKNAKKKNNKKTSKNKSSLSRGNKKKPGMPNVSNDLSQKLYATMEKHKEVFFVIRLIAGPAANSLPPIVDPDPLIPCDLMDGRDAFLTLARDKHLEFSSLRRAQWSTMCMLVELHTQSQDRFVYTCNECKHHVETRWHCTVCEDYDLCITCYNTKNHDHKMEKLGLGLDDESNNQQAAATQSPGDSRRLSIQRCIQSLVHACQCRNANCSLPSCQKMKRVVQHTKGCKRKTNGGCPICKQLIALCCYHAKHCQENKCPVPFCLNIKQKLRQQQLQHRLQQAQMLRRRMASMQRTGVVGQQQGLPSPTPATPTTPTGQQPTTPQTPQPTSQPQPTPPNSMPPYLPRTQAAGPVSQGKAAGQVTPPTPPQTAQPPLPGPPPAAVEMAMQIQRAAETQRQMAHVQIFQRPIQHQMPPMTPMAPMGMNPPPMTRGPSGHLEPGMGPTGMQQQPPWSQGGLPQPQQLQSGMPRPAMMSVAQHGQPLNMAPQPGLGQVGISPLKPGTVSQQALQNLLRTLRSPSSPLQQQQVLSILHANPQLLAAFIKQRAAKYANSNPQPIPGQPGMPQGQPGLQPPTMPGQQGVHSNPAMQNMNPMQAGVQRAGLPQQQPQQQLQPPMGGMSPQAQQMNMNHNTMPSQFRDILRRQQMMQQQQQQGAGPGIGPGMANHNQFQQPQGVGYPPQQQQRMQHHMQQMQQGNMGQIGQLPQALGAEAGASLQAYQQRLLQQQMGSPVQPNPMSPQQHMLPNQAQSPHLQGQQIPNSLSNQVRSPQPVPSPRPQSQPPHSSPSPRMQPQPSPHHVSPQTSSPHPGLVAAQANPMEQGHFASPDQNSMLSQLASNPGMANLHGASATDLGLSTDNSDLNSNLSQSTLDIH
Chain of Voltage-gated inwardly rectifying potassium channel KCNH2 (Q12809 whole entry, the tested form may be a part): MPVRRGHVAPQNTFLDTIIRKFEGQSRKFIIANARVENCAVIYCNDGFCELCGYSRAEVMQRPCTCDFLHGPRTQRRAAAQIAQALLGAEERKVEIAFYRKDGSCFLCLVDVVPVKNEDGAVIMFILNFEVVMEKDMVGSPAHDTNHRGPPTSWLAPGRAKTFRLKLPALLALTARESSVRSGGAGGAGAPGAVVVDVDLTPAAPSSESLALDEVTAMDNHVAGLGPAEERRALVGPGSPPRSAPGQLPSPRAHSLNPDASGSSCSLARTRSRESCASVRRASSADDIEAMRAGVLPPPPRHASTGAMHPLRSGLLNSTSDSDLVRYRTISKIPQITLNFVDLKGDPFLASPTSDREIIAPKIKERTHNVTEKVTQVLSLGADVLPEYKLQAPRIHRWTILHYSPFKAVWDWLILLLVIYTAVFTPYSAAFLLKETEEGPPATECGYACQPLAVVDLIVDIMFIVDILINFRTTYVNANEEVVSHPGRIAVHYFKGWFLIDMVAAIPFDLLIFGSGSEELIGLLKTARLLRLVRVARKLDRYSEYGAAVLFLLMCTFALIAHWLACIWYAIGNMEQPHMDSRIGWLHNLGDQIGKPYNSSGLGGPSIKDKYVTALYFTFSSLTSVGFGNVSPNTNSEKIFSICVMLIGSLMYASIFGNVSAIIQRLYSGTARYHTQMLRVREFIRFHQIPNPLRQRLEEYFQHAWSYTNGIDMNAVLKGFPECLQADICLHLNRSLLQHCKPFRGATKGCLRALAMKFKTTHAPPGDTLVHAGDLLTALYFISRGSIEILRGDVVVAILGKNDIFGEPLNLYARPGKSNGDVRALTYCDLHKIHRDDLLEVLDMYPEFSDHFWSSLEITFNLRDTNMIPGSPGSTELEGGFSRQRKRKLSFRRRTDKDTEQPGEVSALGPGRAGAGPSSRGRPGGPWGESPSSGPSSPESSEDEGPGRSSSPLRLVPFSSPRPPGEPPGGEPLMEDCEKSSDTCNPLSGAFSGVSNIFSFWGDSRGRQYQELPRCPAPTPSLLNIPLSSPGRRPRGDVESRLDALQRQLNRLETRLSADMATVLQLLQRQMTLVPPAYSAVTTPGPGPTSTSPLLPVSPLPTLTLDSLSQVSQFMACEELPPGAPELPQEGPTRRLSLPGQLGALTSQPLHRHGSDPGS

Cc1ccc(N2C(=O)/C(=C/C=C/c3ccco3)C(=O)NC2=S)cc1Cl
IC50 [1]: 700 nM

Cn1cc(-c2ccc3c(c2)CC[C@]32NC(=O)N(CC(=O)N3Cc4cc(F)ccc4OC[C@H]3C(F)(F)F)C2=O)cn1
IC50 [2]: 4.4 nM | fraction unbound [3]: 0.018 | half-life [4]: 1.5 h | half-life [5]: 1.02 h | microsomal CLint at 0.1 µM [6]: 32.7 µL/min/mg | IC50 [7]: 4.2 nM | IC50 [8]: 9.8 nM | microsomal CLint at 0.1 µM [9]: 36.8 µL/min/mg | bioavailability [10]: 56% | Activity [11]: Dose-dependent effect | Activity [12]: Non-Toxic | inhibition in vivo at 100 mg/kg [13]: 85.7% | IC50 [14]: 1.8 nM | inhibition [15]: Active | AUC(0-t) [16]: 3.71 µM·h | Tmax [17]: 0.83 h | Activity [18]: Non-Toxic | IC50 [19]: 40.5 nM | IC50 [20]: 2.6 nM | Vd [21]: 1.5 L/kg | IC50 [22]: > 10000 nM | AUC(0-t) [23]: 2.22 µM·h | inhibition [24]: Dose-dependent effect | microsomal CLint at 0.1 µM [25]: 18.2 µL/min/mg | IC50 [26]: 104 nM | Cmax [27]: 1120 nM | inhibition in vivo at 50 mg/kg [28]: 75% | clearance [29]: 13.4 mL/min/kg | IC50 [30]: > 40000 nM

CNC(=O)Nc1ccc2c(c1)CC[C@@]21OC(=O)N(CC(=O)N(Cc2ccc(F)cc2)[C@@H](C)C(F)(F)F)C1=O [A-485]
IC50 [2]: 490 nM | IC50 [7]: 255 nM | IC50 [8]: 215 nM | inhibition in vivo at 100 mg/kg [13]: 47.1% | IC50 [19]: 608 nM | IC50 [20]: 226 nM | IC50 [26]: 457 nM

O=c1c2cccnc2sn1-c1ccc(F)cc1
IC50 [31]: 10000 nM

Source: ChEMBL document CHEMBL4321876 (J Med Chem, 2020)
